Measured values from patent US7812045B2, “Antifungal triazole derivatives” (Daewoong Pharmaceutical Co., Ltd., priority 2005, dated 2010).
Values after ≈ are worked out from the molar mass of the structure shown. Like-named read-outs stand apart in the source and are kept apart here.

Columns and labels:
[1] = tested on: Aspergillus flavus ATCC MYA-1004; assay: In vitro assay for antifungal activity (MIC90); format: cell-based; conditions: RPMI 1640, growth read after 48 hours, duplicate; for MIC90: read-out: MIC90 (concentration at which 90% of the fungi were inhibited compared to the negative control)
Method: (§1) Fungal strains to be tested were inoculated onto Sabouraud dextrose agar, YM agar, and potato dextrose agar and cultured at 35° C. for two to three days. Individual single colonies of the yeast fungi selected out of the cultured strains were suspended in 5 ml of 0.85% sterile saline, followed by correction to adjust the absorbance thereof at 530 nm to 0.108. The suspensions were diluted serially by 1:50 and then 1:20 in RPMI 1640 media to prepare liquid inocula ranging in cell count from 1.0×10^3 to 5.0×10^3 CFU/ml. As for filamentous fungi, their spores were suspended in 0.85% sterile saline and the suspensions were corrected with sterile saline to show optical transmittance at 530 nm of 80 to 82%. A dilution of 1:50 was made with RPMI 1640 media to prepare liquid inocula having cell counts from […] to 5×10^4 CFU/ml.
(§2) Antifungal samples were prepared by diluting the compounds of the present inventions in RPMI 1640 media to serial concentrations from 0.0625 to 32 μg/ml. As a vehicle, DMSO was contained in a final concentration of 1% (V/V) in the antifungal samples. 0.1 ml of each of the dilutions in series was added to equal volume of each of the fungal inocula.

[2] = tested on: Aspergillus fumigatus ATCC MYA-1163; assay: In vitro assay for antifungal activity (MIC90); format: cell-based; conditions: RPMI 1640, growth read after 48 hours, duplicate; for MIC90: read-out: MIC90 (concentration at which 90% of the fungi were inhibited compared to the negative control)
Method: as §1, §2

[3] = tested on: Aspergillus niger ATCC 9142; assay: In vitro assay for antifungal activity (MIC90); format: cell-based; conditions: duplicate; for MIC90: ATCC9142, RPMI 1640, growth read after 48 hours, read-out: MIC90 (concentration at which 90% of the fungi were inhibited compared to the negative control)
Method: as §1, §2

[4] = tested on: Aspergillus terreus ATCC 28301; assay: In vitro assay for antifungal activity (MIC90); format: cell-based; conditions: duplicate; for MIC90: ATCC28301, RPMI 1640, growth read after 48 hours, read-out: MIC90 (concentration at which 90% of the fungi were inhibited compared to the negative control)
Method: as §1, §2

[5] = tested on: Candida albicans ATCC 32033; assay: In vitro assay for antifungal activity (MIC90); format: cell-based; conditions: duplicate; for MIC90: ATCC32033, RPMI 1640, growth read after 24 hours, read-out: MIC90 (concentration at which 90% of the fungi were inhibited compared to the negative control)
Method: as §1, §2

[6] = tested on: Candida glabrata ATCC 34138; assay: In vitro assay for antifungal activity (MIC90); format: cell-based; conditions: duplicate; for MIC90: Nakaseomyces glabratus, ATCC34138, RPMI 1640, growth read after 24 hours, read-out: MIC90 (concentration at which 90% of the fungi were inhibited compared to the negative control)
Method: as §1, §2

Candida krusei ATCC 6258 = assay: In vitro assay for antifungal activity (MIC90); format: cell-based; conditions: duplicate; for MIC90: Pichia kudriavzevii, ATCC6258, RPMI 1640, growth read after 24 hours, read-out: MIC90 (concentration at which 90% of the fungi were inhibited compared to the negative control)
Method: as §1, §2

[7] = tested on: Cryptococcus neoformans ATCC 4065; assay: In vitro assay for antifungal activity (MIC90); format: cell-based; conditions: for MIC90: ATCC4065, RPMI 1640, duplicate, read-out: MIC90 (concentration at which 90% of the fungi were inhibited compared to the negative control)
Method: as §1, §2

[8] = tested on: Candida albicans (ATCC 36082); assay: In vivo assay for antifungal activity (survival of infected mice); conditions: ICR mice infected i.v. with Candida albicans ATCC 36082; for % Survival on Day 21: 20 mg/kg orally once a day for seven days (day 0 to day 6), groups of 10
Method: Candida albicans (ATCC 36082) was grown in YM broth on a rotary shaker (200 rpm, 26° C.) for about 12 hours to a concentration of 2.5×10^7 CFU/ml and used to infect ICR mice at a dose of 0.2 ml/head via caudal veins. Suspensions or solutions of the azole compounds in a 25% beta-hydroxypropyl methylcellulose base were orally administered at a dose of 20 mg/kg to respective infected ICR mice in groups of 10, the condition and body weights of the mice were monitored, and autopsies were finally conducted. For a negative control, the vehicle alone was used while fluconazole was administered to a positive control. The mice were inoculated once with the fungal preparation on the day of commencement of the administration. The test materials of interest and the positive control material were orally administered to the inoculated mice once a day for seven days from day 0 to day 6, with the first oral administration made five hours after the fungal inoculation (day 0). The periods of time for which the infected mice lived were counted.
The number of mice which survived the fungal infection for 21 days following the inoculation was represented as % survival for each test group, and the results are given in Table 11, below. All members of the negative control were dead 8 days after the fungal infection, while all of the groups administered with Compound 50 were dead 18 days after the fungal infection.

Assay for acute toxicity = format: in vivo; conditions: mice; oral administration, to a dose of 1000 mg/kg; observed for two weeks; suspension in 25% beta-hydroxypropyl methylcellulose base or polyethylene glycol 400
HepG2 cells [9] = assay: Assay for cytotoxicity in human hepatocytes (Neutral red); conditions: overnight incubation, absorbance at 540 nm, triplicate, compound concentration not given
HepG2 cells [10] = tested on: HepG2 cells
Method: HepG2 cells were aliquoted at a population of 5×10^4 counts per well of 96-well plates and grown at 37° C. in a 5% CO2 incubator for 1 day. The culture medium in each well was replaced with a fresh medium containing the compounds of interest, followed by overnight incubation in the incubator. Following the addition of 100 μl of a 100 μg/ml Neutral red solution into each well, the cells were stained for 3 hours in the incubator and fixed in 1% formaldehyde with 1% CaCl2. The cells were destained in 1% glacial acetic acid plus 50% ethanol, followed by measurement for absorbance at 540 nm. Cytotoxicity was expressed as percentages of optical density relative to that of the control, treated with none of the compounds.

[11] = RPMI 1640, growth read after 48 hours
[12] = RPMI 1640, growth read after 24 hours

Structure (SMILES): C[C@@H](N1NCc2ccccc21)[C@](O)(Cn1cncn1)c1ccc(F)cc1F [Example 50, (2R,3R)-2-(2,4-Difluorophenyl)-3-(2H-indazol-1-yl)-1-(1H-1,2,4-triazol-1-yl)butan-2-ol]
- MIC90 [1]: 2 µg/mL (≈ 5.39 µM)
- MIC90 [2]: 4 µg/mL (≈ 10.8 µM)
- MIC90 [3]: 8 µg/mL (≈ 21.5 µM)
- MIC90 [4]: 4 µg/mL (≈ 10.8 µM)
- MIC90 [5]: ≤ 0.015 µg/mL
- MIC90 [6]: 2 µg/mL (≈ 5.39 µM)
- MIC90 (Candida krusei ATCC 6258): 0.5 µg/mL (≈ 1.35 µM)
- MIC90 [7]: 0.063 µg/mL (≈ 0.17 µM)
- time after the fungal infection at which all mice of the group were dead ([8]; 20 mg/kg orally once a day for seven days): 18 days
- % Survival on Day 21 [8]: 0%
- acute toxicity: toxic syndromes observed (Assay for acute toxicity): no toxic syndromes
- Cytotoxicity (percentages of optical density relative to that of the control) (HepG2 cells [9]): 5.2%

Structure (SMILES): C[C@@H](n1nc(Cl)c2ccccc21)[C@](O)(Cn1cncn1)c1ccc(F)cc1F [Example 52]
- Cytotoxicity (percentages of optical density relative to that of the control) (HepG2 cells [10]): 5.6%

Structure (SMILES): Cc1c2c(Cl)cccc2nn1[C@H](C)[C@](O)(Cn1cncn1)c1ccc(F)cc1F [Example 68]
- Cytotoxicity (percentages of optical density relative to that of the control) (HepG2 cells [10]): 2.4%

Structure (SMILES): Cc1nn([C@H](C)[C@](O)(Cn2cncn2)c2ccc(F)cc2F)c2cccc(Cl)c12 [Example 69]
- Cytotoxicity (percentages of optical density relative to that of the control) (HepG2 cells [10]): 1.6%

Structure (SMILES): C[C@@H](n1ncc2cc(NCc3cccc(Cl)c3)ccc21)[C@](O)(Cn1cncn1)c1ccc(F)cc1F [Example 240]
- Cytotoxicity (percentages of optical density relative to that of the control) (HepG2 cells [10]): 5.2%

Structure (SMILES): C[C@@H](N1Cc2cc(NCc3ccc(Cl)cc3)ccc2N1)[C@](O)(Cn1cncn1)c1ccc(F)cc1F [Example 245, (2R,3R)-3-(5-(4-chlorobenzylamino)-1H-indazol-2-yl)-2-(2,4-difluorophenyl)-1-(1H-1,2,4-triazol-1-yl)butan-2-ol]
- MIC90 [1]: 0.5 µg/mL (≈ 0.979 µM)
- MIC90 [2]: 0.5 µg/mL (≈ 0.979 µM)
- MIC90 [3]: 2 µg/mL (≈ 3.91 µM)
- MIC90 [4]: 0.5 µg/mL (≈ 0.979 µM)
- MIC90 [5]: ≤ 0.015 µg/mL
- MIC90 [6]: 4 µg/mL (≈ 7.83 µM)
- MIC90 (Candida krusei ATCC 6258): 0.5 µg/mL (≈ 0.979 µM)
- MIC90 [7]: 0.125 µg/mL (≈ 0.245 µM)
- % Survival on Day 21 [8]: 40%
- acute toxicity: toxic syndromes observed (Assay for acute toxicity): no toxic syndromes
- Cytotoxicity (percentages of optical density relative to that of the control) (HepG2 cells [9]): 9.9%

Structure (SMILES): C[C@@H](n1ncc2cc(N(C)C)ccc21)[C@](O)(Cn1cncn1)c1ccc(F)cc1F [Example 310]
- MIC90 (concentration at which 90% of the fungi were inhibited compared to the negative control) [1]: 1 µg/mL
- MIC90 (concentration at which 90% of the fungi were inhibited compared to the negative control) [2]: 2 µg/mL
- MIC90 (concentration at which 90% of the fungi were inhibited compared to the negative control) [3, 11]: 2 µg/mL
- MIC90 (concentration at which 90% of the fungi were inhibited compared to the negative control) [4, 11]: 2 µg/mL
- MIC90 (concentration at which 90% of the fungi were inhibited compared to the negative control) [5, 12]: 0.063 µg/mL
- MIC90 (concentration at which 90% of the fungi were inhibited compared to the negative control) [6, 12]: 8 µg/mL
- MIC90 (concentration at which 90% of the fungi were inhibited compared to the negative control) (Candida krusei ATCC 6258; [12]): 1 µg/mL
- MIC90 (concentration at which 90% of the fungi were inhibited compared to the negative control) ([7]; RPMI 1640, duplicate): 0.5 µg/mL
- % Survival on Day 21 [8]: 40%
- acute toxicity: toxic syndromes observed (Assay for acute toxicity): no toxic syndromes
